The nature of data set [1]: One-electron reduction potential E(1) by pulse radiolysis. The class given is physicochemical. Particulars: determined by pulse radiolysis.
For data set [2], the system named is SKOV3: human ovarian carcinoma cell line. Kind of data set: Proliferation IC50 assay, oxic/hypoxic, SKOV3. The class given is cell-based. Particulars: Table 3; for IC50: 4 h exposure under aerobic conditions; for HCR (hypoxic cytotoxicity ratio) SKOV3: IC50(aerobic)/IC10(hypoxic).
The test system of data set [3] is HT29: human colon cancer cell line. Kind of data set: Proliferation IC50 assay, oxic/hypoxic, HT29. The format is cell-based. The note with it: for IC50 / HCR (hypoxic cytotoxicity ratio) HT29: Table 3; for IC50: 4 h exposure under aerobic conditions; for HCR (hypoxic cytotoxicity ratio) HT29: IC50(aerobic)/IC10(hypoxic).
The next data set has as its system HT29 clonogens. Kind of data set: Clonogenic assay (C10), oxic/hypoxic, HT29. The format is cell-based, human. Particulars: for Clonogenic HCR HT29: C10(aerobic)/C10(hypoxic); for Clonogenic C10 HT29 Oxic: concentration to reduce HT29 clonogens to 10% of controls, 4 hr exposure under aerobic conditions.
Data set [4] can be described thus: Hypoxic metabolism with HT29 tumour S9 (HPLC). The note with it: for k: rate of formation of compound of Formula II: 10 μM with tumour S9 (12 mg/mL protein), 37° C., pH 7.4, NADPH 1 mM, 2 h, products R3, 56, 55, 60. From the text:
Metabolism of compounds of Formula I was investigated using S9 preparations from HT29 tumours grown as xenografts in CD-1 mice.

Where only a bound is given, the exact number is not on record here.

By IC50 is commonly meant the concentration needed to halve the response being measured. As a reminder, the melting point is the temperature of the solid-liquid transition. `CN(C)CCOc1ccc2[nH]c(C(=O)N3CC(CCl)c4c3cc([N+](=O)[O-])c3c(C(N)=O)cccc43)cc2c1` (stereo not shown) [Compound 5, 1-(Chloromethyl)-3-{5-[2-(dimethylamino)ethoxy]indol-2-carbonyl}-5-nitro-1,2-dihydro-3H-benzo[e]indole-6-carboxamide]: the melting point is over 350 °C. For the same compound, in data set [1], the “E(1): one-electron reduction potential” value is given as −481 ± 8 mV. Also, in data set [2] (Homo sapiens, SK-OV-3), the IC50 was 50 µM. Moreover, in data set [2], the “HCR (hypoxic cytotoxicity ratio) SKOV3” value is reported as 18. The compound also had an IC50 in data set [3] (Homo sapiens, HT-29) of 23 µM. Also, the “HCR (hypoxic cytotoxicity ratio) HT29” value in data set [3] came to 43.
As for `CN(C)CCOc1ccc2[nH]c(C(=O)N3CC(CCl)c4c3cc([N+](=O)[O-])c3cc(S(N)(=O)=O)ccc43)cc2c1` (stereo not shown) [Compound 26, 1-(Chloromethyl)-3-{5-[2-(dimethylamino)ethoxy]indol-2-carbonyl}-5-nitro-1,2-dihydro-3H-benzo[e]indole-7-sulfonamide], the “E(1): one-electron reduction potential” value in data set [1] is −390 ± 9 mV. For the same compound, the IC50 amounted to 6.9 µM in data set [2] (Homo sapiens, SK-OV-3) and 4.6 µM in data set [3] (Homo sapiens, HT-29). Further, the “HCR (hypoxic cytotoxicity ratio) SKOV3” value in data set [2] turned out to be 280. The “Clonogenic HCR HT29” value in the data set with HT29 clonogens is listed as over 30.9. Further, in the data set with HT29 clonogens, the “Clonogenic C10 HT29 Oxic” value is over 42 µM. Further, in data set [3], the “HCR (hypoxic cytotoxicity ratio) HT29” value was 330. In addition, the “HCR: Hypoxic cytotoxicity ratio for HT29 cell line” value in data set [3] (Table 5, as defined in Table 3) is 330. Further, the “formation of 60 under hypoxic conditions” value in data set [4] (26 at 10 μM with S9, 2 h, hypoxic, HPLC) is reported as “major product of hypoxic metabolism”. Further, in data set [4] (26 at 10 μM with S9, 2 h, oxic, HPLC), the “formation of 60 under oxic conditions” value is listed as “not detected”.
For the compound `CN(C)CCNS(=O)(=O)c1ccc2c3c(cc([N+](=O)[O-])c2c1)N(C(=O)c1cc2cc(OCCN(C)C)ccc2[nH]1)CC3CCl` (stereo not shown) [Compound 39, 1-(Chloromethyl)-3-{5-[2-(dimethylamino)ethoxy]indol-2-carbonyl}-N-[2-(dimethylamino)ethyl]-5-nitro-1,2-dihydro-3H-benzo[e]indole-7-sulfonamide], the “E(1): one-electron reduction potential” value in data set [1] is −357 ± 8 mV. Also, in data set [2] (Homo sapiens, SK-OV-3), the IC50 was 0.83 µM. Besides, in data set [2], the “HCR (hypoxic cytotoxicity ratio) SKOV3” value worked out at 130. In addition, in the data set with HT29 clonogens, the “Clonogenic HCR HT29” value came out at 55 and the “Clonogenic C10 HT29 Oxic” value is 6.2 µM. Further, the IC50 in data set [3] (Homo sapiens, HT-29) came out at 0.73 µM. Moreover, in data set [3], the “HCR (hypoxic cytotoxicity ratio) HT29” value is on record as 110.
Take `CN(C)CCOc1ccc2[nH]c(C(=O)N3CC(CCl)c4c3cc([N+](=O)[O-])c3cc(C(N)=O)ccc43)cc2c1` (stereo not shown) [Compound 16, 1-(Chloromethyl)-3-{5-[2-(dimethylamino)ethoxy]indol-2-carbonyl}-5-nitro-1,2-dihydro-3H-benzo[e]indole-7-carboxamide]: the “E(1): one-electron reduction potential” value in data set [1] is −422 ± 10 mV. Moreover, the IC50 in data set [2] (Homo sapiens, SK-OV-3) came to 3.9 µM; in data set [3] (Homo sapiens, HT-29), 4.1 µM. The “Clonogenic HCR HT29” value with HT29 clonogens is over 14. Further, the “Clonogenic C10 HT29 Oxic” value in the data set with HT29 clonogens is over 25 µM. In data set [4] (hypoxic), the “k: rate of formation of compound of Formula II” value worked out at 1.48 µM/h.
On to `COc1cc2cc(C(=O)N3CC(CCl)c4c3cc([N+](=O)[O-])c3cc([N+](=O)[O-])ccc43)[nH]c2c(OC)c1OC` (stereo not shown) [Compound 8], for which, in data set [2], the IC50 was found to be 16 µM and the “HCR (hypoxic cytotoxicity ratio) SKOV3” value is recorded as 78. In the data set on HT29 clonogens, the “Clonogenic HCR HT29” value is over 16.2 and the “Clonogenic C10 HT29 Oxic” value is over 25 µM. Also, in data set [3], the IC50 is 14 µM and the “HCR (hypoxic cytotoxicity ratio) HT29” value worked out at 12.
For the compound `CN(C)CCOc1ccc2[nH]c(C(=O)N3CC(CCl)c4c3cc([N+](=O)[O-])c3cc(C#N)ccc43)cc2c1` (stereo not shown) [Compound 22, 1-(Chloromethyl)-3-{5-[2-(dimethylamino)ethoxy]indol-2-carbonyl}-5-nitro-1,2-dihydro-3H-benzo[e]indole-7-carbonitrile], the “E(1): one-electron reduction potential” value in data set [1] is −385 ± 8 mV. Further, the IC50 in data set [2] (Homo sapiens, SK-OV-3) turned out to be 0.81 µM; in data set [3] (Homo sapiens, HT-29), 0.7 µM. Moreover, in data set [4] (hypoxic), the “k: rate of formation of compound of Formula II” value came to 1.27 µM/h.
For the compound `CN(C)CCOc1ccc2[nH]c(C(=O)N3CC(CCl)c4c3cc([N+](=O)[O-])c3ccc(C(N)=O)cc43)cc2c1` (stereo not shown) [Compound 43, 1-(Chloromethyl)-3-{5-[2-(dimethylamino)ethoxy]indol-2-carbonyl}-5-nitro-1,2-dihydro-3H-benzo[e]indole-8-carboxamide], the “E(1): one-electron reduction potential” value in data set [1] was −447 ± 9 mV. Further, the IC50 in data set [2] (Homo sapiens, SK-OV-3) turned out to be 3.4 µM. Also, in data set [2], the “HCR (hypoxic cytotoxicity ratio) SKOV3” value amounted to 34. For the same compound, in the data set with HT29 clonogens, the “Clonogenic HCR HT29” value stood at 21.2 and the “Clonogenic C10 HT29 Oxic” value came to 33 µM. The compound further had an IC50 in data set [3] (Homo sapiens, HT-29) of 2.8 µM. Further, in data set [3], the “HCR (hypoxic cytotoxicity ratio) HT29” value was 22.
The compound `CN(C)CCOc1ccc2[nH]c(C(=O)N3CCc4c3cc([N+](=O)[O-])c3c(S(N)(=O)=O)c(CCl)ccc43)cc2c1` [Compound 7, 7-(Chloromethyl)-3-{5-[2-(dimethylamino)ethoxy]indol-2-carbonyl}-5-nitro-1,2-dihydro-3H-benzo[e]indole-6-sulfonamide] gave a melting point of over 320 °C. Moreover, the “E(1): one-electron reduction potential” value in data set [1] is listed as −497 ± 8 mV. The compound further displayed an IC50 in data set [2] (Homo sapiens, SK-OV-3) of 3.7 µM. The “HCR (hypoxic cytotoxicity ratio) SKOV3” value in data set [2] was 4.6. This compound displayed an IC50 in data set [3] (Homo sapiens, HT-29) of 2.7 µM. For the same compound, the “HCR (hypoxic cytotoxicity ratio) HT29” value in data set [3] is reported as 2.3.
`COc1cc2cc(C(=O)N3CC(CCl)c4c3cc([N+](=O)[O-])c3cc(C(C)=O)ccc43)[nH]c2c(OC)c1OC` (stereo not shown) [Compound 11, 7-Acetyl-1-(chloromethyl)-5-nitro-3-(5,6,7-trimethoxyindol-2-carbonyl)-1,2-dihydro-3H-benzo[e]indole] came in with a melting point of 257 to 260 °C. In addition, the IC50 in data set [2] (Homo sapiens, SK-OV-3) was found to be 5.1 µM. In addition, the “HCR (hypoxic cytotoxicity ratio) SKOV3” value in data set [2] stood at 19. Moreover, in the data set with HT29 clonogens, the “Clonogenic HCR HT29” value is given as over 13.5 and the “Clonogenic C10 HT29 Oxic” value was over 25 µM. The IC50 in data set [3] (Homo sapiens, HT-29) turned out to be 4.1 µM. Also, the “HCR (hypoxic cytotoxicity ratio) HT29” value in data set [3] stood at 5.2.
Turning to `CN(C)CCOc1ccc2[nH]c(C(=O)N3CC(CCl)c4c3cc([N+](=O)[O-])c3ccc(S(N)(=O)=O)cc43)cc2c1` (stereo not shown) [Compound 49, 1-(Chloromethyl)-3-{5-[2-(dimethylamino)ethoxy]indol-2-carbonyl}-5-nitro-1,2-dihydro-3H-benzo[e]indole-8-sulfonamide], the melting point was 260 to 265 °C (dec.). Besides, the “E(1): one-electron reduction potential” value in data set [1] was −456 ± 8 mV. In addition, in data set [2] (Homo sapiens, SK-OV-3), the IC50 amounted to 4.9 µM. Besides, in data set [2], the “HCR (hypoxic cytotoxicity ratio) SKOV3” value came out at 21. This compound also yielded an IC50 in data set [3] (Homo sapiens, HT-29) of 9 µM. In addition, the “HCR (hypoxic cytotoxicity ratio) HT29” value in data set [3] stood at 26.
For `CN(C)CCOc1ccc2[nH]c(C(=O)N3CC(CCl)c4c3cc([N+](=O)[O-])c3cccc([N+](=O)[O-])c43)cc2c1` (stereo not shown) [Compound 52, 1-(Chloromethyl)-3-{5-[2-(dimethylamino)ethoxy]indol-2-carbonyl}-5,9-dinitro-1,2-dihydro-3H-benzo[e]indole], the “E(1): one-electron reduction potential” value in data set [1] is −477 ± 7 mV. Further, the 50% inhibitory concentration (IC50) in data set [2] (Homo sapiens, SK-OV-3) amounted to 1.2 µM; in data set [3] (Homo sapiens, HT-29), 1.4 µM. The “HCR (hypoxic cytotoxicity ratio) SKOV3” value in data set [2] came to 1.5. For the same compound, the “HCR (hypoxic cytotoxicity ratio) HT29” value in data set [3] is on record as 1.3.
`CN(C)CCOc1ccc2[nH]c(C(=O)N3CC(CCl)c4c3cc([N+](=O)[O-])c3c(C#N)cccc43)cc2c1` (stereo not shown) [Compound 6, 1-(Chloromethyl)-3-{5-[2-(dimethylamino)ethoxy]indol-2-carbonyl}-5-nitro-1,2-dihydro-3H-benzo[e]indole-6-carbonitrile]: the melting point is over 300 °C. For the same compound, the “E(1): one-electron reduction potential” value in data set [1] is on record as −491 ± 8 mV. This compound also gave an IC50 in data set [2] (Homo sapiens, SK-OV-3) of 0.17 µM. The “HCR (hypoxic cytotoxicity ratio) SKOV3” value in data set [2] amounted to 1.7. Besides, in data set [3] (Homo sapiens, HT-29), the IC50 was 0.12 µM. The “HCR (hypoxic cytotoxicity ratio) HT29” value in data set [3] is given as 1.1.

For the origin of these results see patent US7718688B2, “Nitrobenzindoles and their use in cancer therapy” (Auckland Uniservices Limited, priority 2004, dated 2010).
